This passage reports IC50 results from ChEMBL document CHEMBL4342441, “Small molecules targeting HIF-1α pathway for cancer therapy in recent years” (Bioorg Med Chem, 2020).

The target of experiment [1] is T1, Hypoxia-inducible factor 1-alpha (Homo sapiens, UniProt Q16665). Briefly: Activation of HIF1 in human T47D cells. It counts as cell-based.
Experiment [2] concerns the target T1, Hypoxia-inducible factor 1-alpha. Briefly: Activation of HIF1 in human T47D cells after 30 mins by luciferase reporter gene assay. It counts as cell-based. In general terms: In a reporter assay the amount or activity of a reporter protein is the signal.

For orientation: IC50 means the concentration at which inhibition is half-maximal.

T1 sequence (Q16665 whole entry): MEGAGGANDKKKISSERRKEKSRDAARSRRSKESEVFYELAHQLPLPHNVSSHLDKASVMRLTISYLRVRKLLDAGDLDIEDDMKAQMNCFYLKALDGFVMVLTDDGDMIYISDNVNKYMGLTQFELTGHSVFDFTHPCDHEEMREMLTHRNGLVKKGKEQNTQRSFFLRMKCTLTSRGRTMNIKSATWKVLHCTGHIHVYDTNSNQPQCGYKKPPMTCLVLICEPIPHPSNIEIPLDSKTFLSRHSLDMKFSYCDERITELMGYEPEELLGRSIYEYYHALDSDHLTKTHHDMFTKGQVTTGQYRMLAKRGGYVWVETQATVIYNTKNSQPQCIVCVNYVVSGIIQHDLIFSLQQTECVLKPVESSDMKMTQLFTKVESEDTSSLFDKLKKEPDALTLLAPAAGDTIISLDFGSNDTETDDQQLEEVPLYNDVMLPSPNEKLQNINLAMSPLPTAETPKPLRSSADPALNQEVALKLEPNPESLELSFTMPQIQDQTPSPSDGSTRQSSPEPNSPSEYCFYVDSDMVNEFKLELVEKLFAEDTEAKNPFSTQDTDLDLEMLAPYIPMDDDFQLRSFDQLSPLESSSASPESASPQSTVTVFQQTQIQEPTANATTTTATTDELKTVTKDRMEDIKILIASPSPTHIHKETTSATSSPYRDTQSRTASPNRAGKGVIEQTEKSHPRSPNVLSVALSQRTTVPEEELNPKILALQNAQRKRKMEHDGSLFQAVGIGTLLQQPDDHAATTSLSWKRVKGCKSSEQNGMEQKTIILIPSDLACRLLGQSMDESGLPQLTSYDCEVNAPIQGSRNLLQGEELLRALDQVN

For `COc1ccc([C@@H](O)[C@@H](C)Oc2ccc([C@H]3O[C@H](c4ccc(OC)c(OC)c4)[C@H](C)[C@H]3C)cc2OC)cc1OC`, half-maximal inhibition in experiment [1] (IC50) required 20 nM. In turn, `COc1ccc([C@@H](O)[C@@H](C)Oc2ccc([C@@H]3CC[C@H](c4ccc(O[C@H](C)[C@H](O)c5ccc(OC)c(OC)c5)c(OC)c4)C3)cc2OC)cc1OC` gave an IC50 in experiment [2] of 3 nM.
